Laboratory results: ChEMBL document CHEMBL1201862, “PubChem BioAssay data set” (2004)
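96-well plates; 48 h exposure; 5 concentrations. Endpoints by linear interpolation between flanking doses. Not reached: highest tested concentration assigned. At the GI50, growth is halved.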 Activity calls are given as the source filed them. Cut-off read from the data, not from the text of the source: active = GI50 up to about 1.1 µM and inactive = higher.

Assays:
Experiment in all cases: growth of human tumour cells (NCI), 48 h
[1] = tested on: A549
[2] = tested on: IGROV-1
[3] = tested on: HL-60
[4] = tested on: OVCAR-8
[5] = tested on: DLD-1
[6] = tested on: SR
[7] = tested on: UACC-257
[8] = tested on: SF-268
[9] = tested on: HOP-92
[10] = tested on: RXF 393
[11] = tested on: RPMI-8226
[12] = tested on: OVCAR-4
[13] = tested on: NCI-H226
[14] = tested on: EKVX

Measured: GI50

O=S(=O)(c1ccccc1)n1cnc(CCc2ccccc2)n1
inactive: [1] > 100 µM | [2] > 100 µM | [3] > 100 µM | [4] > 100 µM | [5] > 100 µM | [6] > 100 µM | [7] > 100 µM | [8] > 100 µM | [9] > 100 µM | [10] > 100 µM | [11] > 100 µM | [12] > 100 µM | [13] > 100 µM

O=C(CC1(O)C(=O)Nc2c(Cl)cc(Cl)cc21)c1ccc([N+](=O)[O-])cc1 (configuration not stated)
inactive: [1] > 79.8 µM | [2] > 52.2 µM | [3] 7.89 µM | [4] > 51.5 µM | [5] > 43.4 µM | [14] 43.4 µM | [6] > 51.3 µM | [7] 33.3 µM | [8] > 50.8 µM | [9] 24.3 µM | [10] > 100 µM | [11] 26.9 µM | [12] 17.5 µM | [13] 30.6 µM

O=c1cc2ccccc2nn1-c1ccccc1Cl
inactive: [1] > 100 µM | [2] > 100 µM | [4] > 100 µM | [5] > 100 µM | [14] > 100 µM | [7] > 100 µM | [8] 85.7 µM | [9] > 100 µM | [11] 42.4 µM | [12] > 100 µM | [13] > 100 µM

Cc1ccc(C(=O)/C=C/c2cccc([N+](=O)[O-])c2)cc1
inactive: [1] > 100 µM | [2] > 67.9 µM | [3] 36.6 µM | [4] 42.9 µM | [5] 44 µM | [14] > 100 µM | [6] 18.6 µM | [7] > 100 µM | [8] > 67.5 µM | [9] > 100 µM | [10] > 43.7 µM | [11] 26.6 µM | [12] 46.9 µM | [13] > 58.7 µM

COC1=CC(=O)c2c(cc3c(c2O)-c2c(OC)cc4cc5c(c(O)c4c2OC(=O)CC(C)(O)C3)C(=O)CC(C)(O)C5)C1=O (configuration not stated)
inactive: [1] 2.68 µM | [2] 1.9 µM | [3] 1.34 µM | [4] 1.55 µM | [5] 2.63 µM | [14] 2.27 µM | [6] 2.02 µM | [7] 1.76 µM | [8] 2.97 µM | [9] 1.95 µM | [10] 2.05 µM | [11] 1.32 µM | [12] 3.15 µM | [13] 1.84 µM

CCCN1C(=O)C/C(=C\C(C)=O)Nc2ccccc21
inactive: [1] > 100 µM | [2] > 100 µM | [4] > 100 µM | [5] > 100 µM | [14] > 100 µM | [6] > 100 µM | [8] > 100 µM | [9] > 100 µM | [10] > 100 µM | [12] > 100 µM | [13] 37.2 µM

COC(=O)C(=O)C(C#N)c1c(Cl)cccc1Cl (configuration not stated)
inactive: [1] > 100 µM | [2] > 100 µM | [3] > 100 µM | [4] > 100 µM | [5] > 100 µM | [14] > 100 µM | [7] > 100 µM | [8] > 100 µM | [9] > 100 µM | [10] > 100 µM | [11] > 100 µM | [12] > 100 µM | [13] > 100 µM

N#C/N=C1\NCCC(=O)N1CCc1c[nH]c2ccccc12
inactive: [1] > 100 µM | [2] > 100 µM | [3] > 100 µM | [4] > 100 µM | [5] > 100 µM | [14] > 100 µM | [6] > 100 µM | [7] > 100 µM | [8] > 100 µM | [10] > 100 µM | [11] > 100 µM | [12] > 100 µM | [13] > 100 µM

COc1ccccc1/C=C(\C#N)c1ccccc1
inactive: [1] 37 µM | [2] 43.3 µM | [4] 50.5 µM | [5] 28.1 µM | [6] 15.6 µM | [7] 31.1 µM | [8] 82.8 µM | [9] 45 µM | [10] 27.7 µM | [11] 20.8 µM | [12] 30.2 µM | [13] 3.13 µM

CN(C)CCCCC1CCN(CC(=O)N2c3ccccc3NC(=O)c3ccccc32)CC1
inactive: [1] > 100 µM | [3] > 100 µM | [4] > 100 µM | [5] > 100 µM | [14] > 100 µM | [6] > 100 µM | [7] > 100 µM | [8] > 100 µM | [9] > 100 µM | [11] > 100 µM | [12] > 100 µM | [13] > 100 µM
